ChEMBL document CHEMBL3885861, “Open TG-GATES”

Species: Rattus norvegicus
Test: Open TG-GATES - Regimen: Single
Format: toxicity, organism-based, Sprague-Dawley
Parameters: regimen Single, gender Male, age 6 weeks
Conditions: in vivo, po, 25 mg/kg, route gavage, dose level Middle; for APTT / Bas / Eos / Fbg / Hb / Ht / Lym / MCH / MCHC / MCV / Mono / Neu / PT / Plat / RBC / Ret / WBC: tissue Blood; for KIDNEY_L / KIDNEY_R / KIDNEY_TOTAL: tissue Kidney; for LIVER: tissue Liver; for A/G / ALP / ALT / AST / BUN / CRE / Ca / Cl / DBIL / GLC / IP / K / LDH / Na / PL / RALB / TBIL / TC / TG / TP / gamma-GTP: tissue Plasma

NC1=NC(=O)C(c2ccccc2)O1 (configuration not stated) [PEMOLINE] showed a TERMINAL_BW (3 h) of 210.1 g, an APTT (3 h) of 15.6 s and a Bas (3 h) of 0%. For the same compound, the Eos (3 h) was 1%, the Fbg (3 h) was 280.4 mg/dL and the Hb (3 h) was 13.5 g/dL. The Ht (3 h) was 39.8%, the Lym (3 h) was 74.2% and the MCH (3 h) was 21.3 pg. The MCHC (3 h) was 33.8%, the MCV (3 h) was 62.9 fL and the Mono (3 h) was 3.8%. For the same compound, the Neu (3 h) was 20.6%, the PT (3 h) was 13.1 s and the Plat (3 h) was 115 x10_4/uL. For the same compound, the RBC (3 h) was 633.2 x10_4/ul, the Ret (3 h) was 8.8% and the WBC (3 h) was 86.4 x10_2/uL. The KIDNEY_L (3 h) was 0.9 g, the KIDNEY_R (3 h) was 0.9 g and the KIDNEY_TOTAL (3 h) was 1.8 g. For the same compound, the LIVER (3 h) was 9.3 g, the A/G (3 h) was 1 and the ALP (3 h) was 1568.2 IU/L. It also gave an ALT (3 h) of 42.6 IU/L, an AST (3 h) of 86 IU/L and a BUN (3 h) of 8.2 mg/dL. The CRE (3 h) was 0.2 mg/dL, the Ca (3 h) was 10.5 mg/dL and the Cl (3 h) was 106.4 meq/L. It also gave a DBIL (3 h) of 0.01 mg/dL, a GLC (3 h) of 185.2 mg/dL and an IP (3 h) of 8.5 mg/dL. For the same compound, the K (3 h) was 3.8 meq/L, the LDH (3 h) was 104 IU/L and the Na (3 h) was 140.4 meq/L. It also gave a PL (3 h) of 122.4 mg/dL, an RALB (3 h) of 2.7 g/dL and a TBIL (3 h) of 0.044 mg/dL. For the same compound, the TC (3 h) was 72.4 mg/dL, the TG (3 h) was 39.6 mg/dL and the TP (3 h) was 5.4 g/dL. The gamma-GTP (3 h) was 1.4 IU/L, the TERMINAL_BW (6 h) was 209.6 g and the APTT (6 h) was 17.7 s. For the same compound, the Bas (6 h) was 0.2%, the Eos (6 h) was 1% and the Fbg (6 h) was 316.4 mg/dL. It also gave a Hb (6 h) of 13.6 g/dL, a Ht (6 h) of 40% and a Lym (6 h) of 72.2%. The MCH (6 h) was 21.7 pg, the MCHC (6 h) was 34% and the MCV (6 h) was 63.7 fL. It also gave a Mono (6 h) of 2.6%, a Neu (6 h) of 23.6% and a PT (6 h) of 13.4 s. The Plat (6 h) was 122.6 x10_4/uL, the RBC (6 h) was 629.6 x10_4/ul and the Ret (6 h) was 9.8%. It also gave a WBC (6 h) of 101.7 x10_2/uL, a KIDNEY_L (6 h) of 0.9 g and a KIDNEY_R (6 h) of 0.9 g. The KIDNEY_TOTAL (6 h) was 1.8 g, the LIVER (6 h) was 8.2 g and the A/G (6 h) was 1. It also gave an ALP (6 h) of 1568 IU/L, an ALT (6 h) of 44 IU/L and an AST (6 h) of 81.8 IU/L. It also gave a BUN (6 h) of 7 mg/dL, a CRE (6 h) of 0.2 mg/dL and a Ca (6 h) of 10.4 mg/dL. For the same compound, the Cl (6 h) was 108.2 meq/L, the DBIL (6 h) was 0.01 mg/dL and the GLC (6 h) was 179.2 mg/dL. The IP (6 h) was 9.4 mg/dL, the K (6 h) was 3.5 meq/L and the LDH (6 h) was 67.6 IU/L. The Na (6 h) was 140.8 meq/L, the PL (6 h) was 121.4 mg/dL and the RALB (6 h) was 2.8 g/dL. The TBIL (6 h) was 0.052 mg/dL, the TC (6 h) was 77 mg/dL and the TG (6 h) was 15.2 mg/dL. The TP (6 h) was 5.5 g/dL, the gamma-GTP (6 h) was 1 IU/L and the TERMINAL_BW (9 h) was 212 g. It also gave an APTT (9 h) of 16 s, a Bas (9 h) of 0% and an Eos (9 h) of 0.6%. It also gave a Fbg (9 h) of 316.2 mg/dL, a Hb (9 h) of 13.7 g/dL and a Ht (9 h) of 40.4%. It also gave a Lym (9 h) of 75.2%, an MCH (9 h) of 21.7 pg and an MCHC (9 h) of 33.8%. For the same compound, the MCV (9 h) was 64.2 fL, the Mono (9 h) was 2.4% and the Neu (9 h) was 21.2%. The PT (9 h) was 13.4 s, the Plat (9 h) was 112 x10_4/uL and the RBC (9 h) was 630.8 x10_4/ul. The Ret (9 h) was 9.7%, the WBC (9 h) was 91.7 x10_2/uL and the KIDNEY_L (9 h) was 0.9 g. The KIDNEY_R (9 h) was 0.9 g, the KIDNEY_TOTAL (9 h) was 1.7 g and the LIVER (9 h) was 8.1 g. For the same compound, the A/G (9 h) was 1, the ALP (9 h) was 1640.8 IU/L and the ALT (9 h) was 40.2 IU/L. For the same compound, the AST (9 h) was 83.4 IU/L, the BUN (9 h) was 8.6 mg/dL and the CRE (9 h) was 0.2 mg/dL. For the same compound, the Ca (9 h) was 10.6 mg/dL, the Cl (9 h) was 106.4 meq/L and the DBIL (9 h) was 0.014 mg/dL. The GLC (9 h) was 191.6 mg/dL, the IP (9 h) was 9.7 mg/dL and the K (9 h) was 3.8 meq/L. For the same compound, the LDH (9 h) was 94.4 IU/L, the Na (9 h) was 141.4 meq/L and the PL (9 h) was 137 mg/dL. The RALB (9 h) was 2.8 g/dL, the TBIL (9 h) was 0.044 mg/dL and the TC (9 h) was 86.8 mg/dL. For the same compound, the TG (9 h) was 27.2 mg/dL, the TP (9 h) was 5.6 g/dL and the gamma-GTP (9 h) was 1.4 IU/L. The TERMINAL_BW (24 h) was 209.6 g, the APTT (24 h) was 16.3 s and the Bas (24 h) was 0%. The Eos (24 h) was 1%, the Fbg (24 h) was 290 mg/dL and the Hb (24 h) was 12.9 g/dL. The Ht (24 h) was 37.6%, the Lym (24 h) was 80.4% and the MCH (24 h) was 21.9 pg. It also gave an MCHC (24 h) of 34.3%, an MCV (24 h) of 63.7 fL and a Mono (24 h) of 3.6%. It also gave a Neu (24 h) of 14.4%, a PT (24 h) of 13 s and a Plat (24 h) of 107.2 x10_4/uL. It also gave an RBC (24 h) of 589 x10_4/ul, a Ret (24 h) of 8.2% and a WBC (24 h) of 73.1 x10_2/uL. It also gave a KIDNEY_L (24 h) of 0.9 g, a KIDNEY_R (24 h) of 0.9 g and a KIDNEY_TOTAL (24 h) of 1.8 g. It also gave an LIVER (24 h) of 9.3 g, an A/G (24 h) of 1 and an ALP (24 h) of 1533.8 IU/L. The ALT (24 h) was 46.6 IU/L, the AST (24 h) was 87.8 IU/L and the BUN (24 h) was 15.4 mg/dL. For the same compound, the CRE (24 h) was 0.2 mg/dL, the Ca (24 h) was 10.6 mg/dL and the Cl (24 h) was 104.4 meq/L. It also gave a DBIL (24 h) of 0.014 mg/dL, a GLC (24 h) of 176.8 mg/dL and an IP (24 h) of 8.8 mg/dL. It also gave a K (24 h) of 4.2 meq/L, an LDH (24 h) of 71.6 IU/L and a Na (24 h) of 140.6 meq/L. The PL (24 h) was 128.2 mg/dL, the RALB (24 h) was 2.7 g/dL and the TBIL (24 h) was 0.032 mg/dL. It also gave a TC (24 h) of 78 mg/dL, a TG (24 h) of 50 mg/dL and a TP (24 h) of 5.4 g/dL. The gamma-GTP (24 h) was 1 IU/L.
